Test results taken from PubChem BioAssay (NCI).
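Exposure lasted 48 hours, with cells grown in 96-well plates and compounds tested at five concentrations. The concentration for 50% growth inhibition is given as GI50. TGI: concentration producing complete growth inhibition.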

Columns and labels:
Assay in all cases: NCI tumour cell line growth inhibition, 48 h
[1] = system: CAKI-1 renal
[2] = system: HOP-92 NSCLC
[3] = system: M14 melanoma
[4] = system: NCI-H226 lung
[5] = system: NCI-H522 lung
[6] = system: OVCAR-3 ovarian
[7] = system: OVCAR-5 ovarian
[8] = system: RXF 393 renal
[9] = system: SK-MEL-2 melanoma
[10] = system: SN12C renal

SMILES	GI50 [1] [µM]	TGI [1] [µM]	GI50 [2] [µM]	TGI [2] [µM]	GI50 [3] [µM]	TGI [3] [µM]	GI50 [4] [µM]	TGI [4] [µM]	GI50 [5] [µM]	TGI [5] [µM]	GI50 [6] [µM]	TGI [6] [µM]	GI50 [7] [µM]	TGI [7] [µM]	GI50 [8] [µM]	TGI [8] [µM]	GI50 [9] [µM]	TGI [9] [µM]	GI50 [10] [µM]	TGI [10] [µM]
CN(C)CC(C(=O)c1ccccc1)c1ccccc1 (stereo not given)	0.966	2.67	2.28	9.54	1.46	2.92	2.42	7.79	1.3	2.79	1.24	2.5	5.93	16.8	1.69	4.46	3.35	7.87	1.57	3.35
O=C(c1cc(=O)c2ccc(O)cc2o1)c1ccc(Cl)cc1Cl	–	> 100	–	> 73.4	–	71.3	–	99.6	–	> 59	–	> 58.9	–	> 100	–	98.4	–	> 100	–	72.1
O=C1NC(=NCC(CO)c2ccccc2)S/C1=C\c1ccc2ncccc2c1 (stereo not given)	> 25	> 25	> 25	> 25	> 25	> 25	> 25	> 25	> 14.1	> 25	13.8	> 25	> 25	> 25	> 20.3	> 25	> 25	> 25	17.6	> 25
CCOc1ccccc1NC(=O)C(=O)CC(=O)C1=C(C)Nc2ccccc2S1	–	> 100	–	> 100	–	> 100	–	> 100	–	> 100	–	> 100	–	> 100	–	> 100	–	> 100	–	> 100
CCOP(=O)(CCP(=O)(OCC)OCC)OCC.C[CH2][Sn]([Cl])([Cl])[CH2]C	13.9	35	19.7	39.2	41.4	> 57.8	20.3	42.7	1.64	4.97	> 84.3	> 100	72	> 100	15.3	30.1	18.9	43.1	48.1	> 69.8
Nc1ccc2c(c1)C(=O)c1ccc(F)cc1-2	–	> 100	–	> 100	–	> 100	–	> 100	–	> 100	–	> 100	–	> 100	–	> 100	–	> 100	–	> 100
Clc1ccc(-c2nc3c(-c4ccc(Cl)cc4)nc(-c4ccccc4)cn3c2-c2ccc(Cl)cc2)cc1	27.8	> 50	14.9	37.1	> 50	> 50	> 50	> 50	44.7	> 50	> 50	> 50	> 50	> 50	11.1	29	26	> 50	> 50	> 50
COc1cc(CNC(=O)/C=C/C=C/c2ccc3c(c2)OCO3)ccc1OCc1cn(-c2ccc(Cl)c(Cl)c2)nn1	1.62	3.57	1.48	3.39	0.982	2.39	1.74	4.31	1.81	5.11	1.42	2.81	1.77	3.99	1.69	3.75	1.74	3.86	1.82	4.93
CCOC(=O)C1=C(Nc2ccccc2)OC/C1=N\NC(=O)Cc1ccccc1	–	> 50	–	> 50	–	> 50	–	> 50	–	> 50	–	> 50	–	> 50	–	> 50	–	> 50	–	> 50
Cc1ccc(/C=C(\C#N)n2nnc3cc(Cl)c(Cl)cc32)cc1	1.09	13.8	1.61	9.65	2.18	5.66	2.88	> 100	2.72	14.9	2.93	12.8	3.25	9.43	2.01	5.69	3.96	> 100	3.13	13.1
O=C(CCCn1c2c(sc3ncccc32)c(=O)n2nnc(-c3ccccc3)c12)NCCc1cnc[nH]1	2.89	14.4	17	39.5	3.5	19.4	11.7	29.3	2.95	23	11	23.6	11.6	32.7	14.8	34	17.6	38.9	0.331	13.4
O=C1Cc2cc(CCn3ccnc3)c(Cl)cc2N1	6.32	> 100	3.54	91.5	3.46	39.8	> 100	> 100	4.74	47.9	9.31	78.1	44.8	> 100	6.28	> 100	5.78	73.6	16.5	> 100
CCN1CCC[C@H]1c1cc(O)c2c(c1OC)C[C@H]1C[C@H]3[C@H](N)C(=O)C(C(N)=O)=C(O)[C@@]3(O)C(=O)C1=C2O	0.0293	0.62	0.0522	3.52	0.0492	1.37	0.216	3.96	0.0562	0.799	0.13	3.17	0.187	4.12	0.0312	0.247	0.0336	0.158	0.0682	1.5
CCCNc1nc(N(C)O)nc(N(C)O)n1	3.15	43.7	4.75	> 100	2.05	> 29.4	6.49	> 93.6	1.11	7.3	0.783	9.23	6.09	> 100	2.96	> 62	2.59	7.76	4.27	> 100
